Consider one molecule from patent US20140329766A1, “Prophylactic Compositions for Management of Microbial Infections in Patients with Brain Injury” (UTI LIMITED PARTNERSHIP, priority 2011, published 2014).

A short description of data set [1]: Alanine transaminase (ALT) activity assay in peripheral blood. The note with it: post-ischemic mice after the single dose of α-GalCer (FIG. 45B). The data set is classed as in vivo. On the procedure:
Separate groups of control sham-operated mice received a single-dose administration of the α-GalCer compositions following the procedures, both as outlined in Example 7 (one composition/one group of four mice). Also, separate groups of post-ischemic mice received a single-dose administration of the α-GalCer compositions about 2 h after the MCAO events, following the procedures as outlined in Example 7 (one composition/one group of four mice). All animals were euthenized 24 h after MCAO events, and their peripheral blood was harvested. The levels of alanine transaminase (ALT) in the samples were determined with an ALT activity assay following the manufacturer's instructions to determine the rates of oxidation of NADH to NAD^+.

A short description of data set [2]: Lung injury assessment (MPO activity, lung edema). The note with it: post-ischemic mice 24 h after MCAO. It is filed as in vivo. On the procedure: The lungs of anaesthetized mice were removed after specified period of reperfusion. For determination of lung myeloperoxidase (MPO) activity (an indicator of lung inflammation), samples of lungs were removed, weighed, immediately frozen in liquid nitrogen and stored at −80° C. until the MPO activity assay was performed. Myeloperoxidase activity was measured using an assay previously described (Krawisz et al., 1984) and modified to be used in a 96-well microtitre plate. Values are expressed as units of MPO activity per milligram of lung tissue (U/mg tissue). For determination of lung fluid content, the left lobes were dissected gently dried using a blotting paper, and weighed. The tissues were dried at 55° C. for 72 h and reweighed. The percentage of lung weight attributed to fluid was calculated as an indicator of lung edema formation.
The lung tissues were removed at 24 h post-MCAO and assessed for: (i) myeloperoxidase activity as a measure of neutrophil infiltration, and (ii) for lung edema.

A further data set has as its system tumors. Particulars: cited from earlier work.
In a further data set the test system is hepatic iNKT cells. As to the kind of experiment: Spinning disk confocal intravital microscopy of the liver: crawling behaviour of GFP+ (iNKT) cells. The data set is classed as in vivo, mice. The note with it: Cxcr6gfp/+ mice without MCAO (FIGS. 31A, 31B). The procedure:
Murine liver intravital microscopy was performed as taught by Wong et al. (1997, A minimal role for selectins in the recruitment of leukocytes into the inflamed liver microvasculature. J. Clin. Invest. 99: 2782). Briefly, the tail vein of the anesthetized mice was cannulated to administer fluorescently labeled antibodies and/or additional anesthetic as required. Body temperature was maintained at 37° C. using an infrared heat lamp. Mice were placed in a right lateral position on an adjustable microscope stage. A lateral abdominal incision along the costal margin to the midaxillary line was made to exteriorize the liver, and all exposed tissues were moistened with saline-soaked gauze to prevent dehydration.
Cells were tracked using ImageJ software version 1.45 (NIH at http://rsb.info.nih.gov/ij/). Time-lapse videos exported from Volocity were imported as .mov file, and then converted to 8-bit grayscale. Fluorescent cells were adjusted using threshold control, and noise particles less than 2.0 pixels were removed by filter. Movement of cells was measured using manual tracking, and was calculated for each track using ImageJ output spreadsheets. The cell velocity was expressed in distance (μm) per time (min). 30-40 tracks from 10 mins videos of each animal in each experimental group were analyzed.
Excised livers were prepared for in vivo microscopic observation. Briefly, the liver was placed on the pedestal of an inverted microscope and the liver surface was then covered with a small piece of saline-soaked KimWipe to hold the organ in position. The liver microvasculature was visualized using a spinning-disk confocal microscopy and images were acquired with an Olympus IX81 inverted microscope using a ×10/0.40 UplanFL N objective. The microscope was equipped with a confocal light path (WaveFx, Quorum, Guelph, ON, CA) based on a modified Yokogawa CSU-10 head (Yokogawa Electric Corporation, Tokyo, Japan). Cxcr6^gfp/+ mice were used to visualize hepatic iNKT cells. Laser excitation wavelengths (Cobolt, Stockholm, Sweden) were used in rapid succession and visualized with the appropriate long-pass filters (Semrock, Rochester, N.Y.). Typical exposure time for each excitation wavelength was 300 milli-seconds. A 512×512 pixel back-thinned electron-multiplying charge-coupled device camera (C9100-13, Hamamatsu, Bridgewater, N.J.) was used for fluorescence detection. Volocity Acquisition software (Improvision) was used to drive the confocal microscope. […] Behaviors of iNKT cells in the hepatic microvasculature were assessed.
Wildtype mice underwent the MCAO procedure as previously described in Example 1. […] The crawling behaviours of crawling GFP+ cells in livers from sham-operated control mice and post-ischemic mice were observed and quantified using the methods disclosed in Example 2.

A short description of data set [3]: Brain infarct size after MCAO. It is filed as in vivo, mice. The note with it: post-ischemic mice, single dose of α-GalCer (FIG. 45A).
Method: Male mice of 8-12 weeks old were anesthetized by intraperitoneal injection of a mixture of 10 mg/kg xylazine hydrochloride (MTC Pharmaceuticals, Cambridge, ON) and 200 mg/kg ketamine hydrochloride (Rogar/STB, London, ON). Body temperature was maintained at 37° C. using a heating pad and temperature regulator with rectal probe. Mice were randomly divided into 2 groups: (i) sham-operated, and (ii) MCAO-operated. All surgical instruments were sterilized before the surgery. Before any incision, the area was swabbed with ethanol. To induce MCAO, a 10-mm incision was made on the right-hand side of the neck. Then, the common carotid artery, external carotid artery, and internal carotid artery were dissected free. The external carotid artery was further dissected distally, then coagulated and cut to serve as a stump. After applying temporary clamps at the common carotid artery and internal carotid artery, a monofilament with a silicon coating diameter of 0.21-0.23 mm (Doccol Corporation, Redlands, Calif., USA) was inserted into the stump of the external carotid artery. The monofilament then advanced a defined distance (12 mm) so that the distal end of the monofilament came to rest across the origin of the MCA. The stump of external carotid artery was tied off. The wound on the neck of the mouse was sutured and the mouse was then transferred onto a heat pad to maintain its body temperature at 37° C. After 30 mins of occlusion, the monofilament was withdrawn to allow reperfusion to occur. The animal then recovered from the anaesthesia. Rehydration of the mice was performed every 4 h with a subcutaneous injection of electrolytes and glucose. Food pellets softened with water were placed in the cage after surgery as the mice recovered, and access to water was provided. Sham-operated animals were subjected to the initial anaesthetic and neck incision only. The animals were then allowed to recover from anaesthetic. All animals were put onto a 37° C. heat pad, post-surgery, to recover from anaesthesia until euthanized.

With `CCCCCCCCCCCCCCCCCCCCCCCCCCC(=O)N[C@@H](COC1OC(CO)C(O)C(O)C1O)[C@H](O)[C@H](O)CCCCCCCCCCCCCC` (stereo partly drawn) [α-GalCer, α-galactosylceramide], the “liver enzyme (ALT) levels within the blood” value in data set [1] was “no significant difference”. In addition, the “stroke-induced neutrophil pulmonary influx (MPO activity in lung)” value in data set [2] (2 μg/mouse i.v. 2 h after MCAO (FIG. 43B)) is reported as “reduced”. The lung edema entry in data set [2] (2 μg/mouse i.v. 2 h after MCAO (FIG. 43C)) was “reduced”. For the same molecule, in the data set with tumors (liver metastatic models), the growth of tumors entry was “suppressed” and the “survival term of the tumor-bearing mice” value is given as “prolonged”. Further, the anti-tumor activity entry in the data set with tumors (murine in vivo experiments incl. subcutaneous implanted model and liver and lung metastatic models) is “potent anti-tumor activity”. Also, the “crawling behaviour of liver iNKT cells after administration of the activator” value with hepatic iNKT cells was “cessation of iNKTcells”. Further, in data set [3], the infarct sizes result was “no notable differences”.
